These results are taken from patent US12510479B2, “Systems, devices, and methods for compound screening using predictive tagging” (ALLEN INSTITUTE, priority 2020, dated 2025).

“Also recorded” adds a separate entry of the source.

Common to all, as to type: cell-based, human
For test [1], the system named is AICS-16 (beta Actin). The test can be described thus: Predicted, label free imaging of drug effects (FIG. 10F, 10H). Conditions: AICS-16 cells; predicted label free images. The text has this:
(§1) FIGS. 10A-10H show the predicted, label free imaging effects of different drugs on different, differentiated, hiPSC cell lines. […] Brefeldin inhibits protein transport from the endoplasmic reticulum to the golgi complex indirectly by preventing association of COP-I coat to the Golgi membrane.

Test [2] has as its system AICS-24 (non-muscle Myosin). Kind of test: Predicted, label free imaging of drug effects (FIG. 10D). As to conditions: AICS-24 cells; predicted label free images.
Excerpt: as §1

The subject of test [3] is Cell Line ID: AICS-0012 c1.105, Alpha tubulin mEGFP-tagged. Kind of test: Label free prediction of condensed DNA from brightfield images (FIG. 9C-9D). Conditions: 5 μM, 2 hours, vs DMSO control. The text has this: (§2) Predicted imaging was also used with H2B (DNA) on Cell Line ID: AICS-0012 c1.105, Alpha tubulin mEGFP-tagged, to confirm the phenotype by two structures from the same cells.
FIGS. 9C and 9D show the predicted images, based on the label free prediction model, obtained by imaging the nucleus of the cells with brightfield microscopy, and predicting the location and amount of condensed DNA, based on the trained model.

Test [4] concerns hiPSC Cell Line ID: AICS-0061 c1.36 Histone H2B type 1-J mEGFP-tagged. The test can be described thus: Fluorescence imaging of Histone H2B mEGFP-tagged hiPSCs (FIG. 8E-8F). Conditions: 5 μM, 2 hours; mEGFP DNA tag; vs DMSO control. An excerpt: (§3) The fluorescent signal from the hiPSC Cell Line ID: AICS-0061 c1.36 Histone H2B type 1-J mEGFP-tagged (DNA tag) was used to train and validate the label free prediction model.

The test system is the same in test [5]. The test can be described thus: Label free prediction of condensed DNA from brightfield images (FIG. 8C-8D). Conditions: 5 μM, 2 hours, vs DMSO control.
Excerpt: as §3
FIGS. 8C and 8D show the predicted images, based on the label free prediction model, obtained by imaging the nucleus of the cells with brightfield microscopy, and predicting the location and amount of condensed DNA, based on the trained model.

The test system of test [6] is EGFP-tagged cell lines AICS-23, AICS-44, AICS-61, AICS-24 and AICS-16. Kind of test: Drug perturbation signature using label free prediction of DNA (FIG. 11A-11C). Conditions: population statistics after DNA segmentation of label free prediction. As to the method: FIG. 11A-11C show the drug perturbation signature using label free prediction, as described herein.
These signatures were distinct from those of other drug perturbations such as BIX, Brefeldin, H89, and Monensin. The identification of these perturbation signatures were performed in the following EGFP-tagged cell lines; AICS-23 (tight junction), AICS-44 (Golgi), AICS-61 (Histone), AICS-24 (non-muscle Myosin) and AICS-16 (beta Actin) without additional introduction of DNA signals.

Test [7] has as its system Cell Line ID: AICS-0012 c1.105, Alpha tubulin mEGFP-tagged. Kind of test: Fluorescence imaging of Alpha tubulin mEGFP-tagged hiPSCs (FIG. 9E-9F). Conditions: 5 μM, 2 hours, vs DMSO control.
Excerpt: as §2

In test [8] the test system is AICS-61 (Histone). Kind of test: Predicted, label free imaging of drug effects (FIG. 10B, 10G). As to conditions: AICS-61 cells; predicted label free images.
Excerpt: as §1

Test [9] deals with hiPSC. The test can be described thus: Effect on microtubules and DNA during mitosis (FIG. 7). An excerpt:
Microtubules, DNA, and Cell membrane are each labeled.

The subject of test [10] is AICS-44 (Golgi). Kind of test: Predicted, label free imaging of drug effects (FIG. 10C, 10E). As to conditions: AICS-44 cells; predicted label free images.
Excerpt: as §1

For `C/C=C(/C)C(=O)O[C@H]1C(C)=C2[C@H]([C@@H]1OC(=O)CCCCCCC)[C@@](C)(OC(C)=O)C[C@H](OC(=O)CCC)[C@@]1(O)[C@H]2OC(=O)[C@@]1(C)O` [Thapsigargin], the “predicted effect on DNA, nuclear size, or microtubule formation” value (“predicted effect on DNA, nuclear size” for short) in test [1] is “no predicted effect on DNA, nuclear size, or microtubule formation”.
`CC[C@@]1([C@@H]2O[C@@H]([C@H]3O[C@@](O)(CO)[C@H](C)C[C@@H]3C)C[C@@H]2C)CC[C@H]([C@]2(C)CC[C@]3(C[C@H](O)[C@@H](C)[C@@H]([C@@H](C)[C@@H](OC)[C@H](C)C(=O)O)O3)O2)O1` [Monensin]: the “predicted effect on DNA, nuclear size” value in test [2] is listed as “no predicted effect on DNA, nuclear size, or microtubule formation”.
For the molecule `CC(=O)O[C@H]1C(=O)[C@@]2(C)[C@H]([C@H](OC(=O)c3ccccc3)[C@]3(O)C[C@H](OC(=O)[C@H](O)[C@@H](NC(=O)c4ccccc4)c4ccccc4)C(C)=C1C3(C)C)[C@]1(OC(C)=O)CO[C@@H]1C[C@@H]2O` [Paclitaxel], the “amount of condensed DNA in predicted images” value in [3] is recorded as “higher than the control cells”. For the same molecule, in [4], the “condensed DNA, fluorescence image” value is reported as “increase in condensed DNA”. Further, in test [5], the “amount of condensed DNA in predicted images” value was “higher than the control cells”. In test [6], the “condensed DNA frequency (perturbation signature in predicted images)” value was “increase in frequency of DNA condensation frequency; also recorded: increased condensed DNA Frequency”, the “nuclear density (perturbation signature in predicted images)” value is given as “higher nuclear density” and the “nuclear volume (perturbation signature in predicted images)” value was “larger nuclear volume”. For the same molecule, in test [7], the “microtubule formation, fluorescence image” value is given as “increase in microtubule formation”. For the same molecule, the “predicted effect on DNA, nuclear size” value in test [8] is reported as “condensed DNA (condensed microtubules)”. Besides, in test [9], the microtubule bundle thickness entry is recorded as “increases microtubule bundle thickness”. In [9] (mitosis), the “effect on hiPSC division” value is on record as “arrest of cells in metaphase”. In addition, the microtubule density entry in test [9] (mitosis, FIG. 7) is given as “increase in microtubule density”.
As to `C[C@H]1CCC/C=C/[C@@H]2C[C@H](O)C[C@H]2[C@H](O)/C=C/C(=O)O1` [Brefeldin], the “predicted effect on DNA, nuclear size” value in test [10] is “no predicted effect on DNA, nuclear size, or microtubule formation”.
With `O=S(=O)(NCCNC/C=C/c1ccc(Br)cc1)c1cccc2cnccc12` [H89], in [8], the “predicted effect on DNA, nuclear size” value is on record as “no predicted effect on DNA, nuclear size, or microtubule formation”.
On to `COc1cc2nc(N3CCCN(C)CC3)nc(NC3CCN(Cc4ccccc4)CC3)c2cc1OC` [BIX-01294], for which the “predicted effect on DNA, nuclear size” value in test [10] is listed as “no predicted effect on DNA, nuclear size, or microtubule formation”.
